Measurements taken from patent publication US9822147B2, “Methods of treating ophthalmic diseases using NPR-B agonists” (priority 2009, dated 2017).
Numbered stars: 1 amine (or outer) side, 2 acyl side, 3 side chain; on linkers, the order of the positions; unused ones are H or OH. Square brackets hold non-standard residues; d marks the D form. Ends that are not written are not given here. Peptide text beside a SMILES is read from it. * marks the point of attachment. Sni = (S)-nipecotic acid, O=C([C@H]1CCCN([*:1])C1)[*:2]; Pro(4R-NH2) = N[C@H]1CN[C@H](C(=O)O)C1; dOrn(Me2) = CN(C)CCC[C@@H](N)C(=O)O; X19 = O=C(C(CC1CCNCC1)N[*:1])[*:2]; X2 = O=C([C@H]1CCCN([*:1])C1)[*:2]; X1 = CCCCCCCCN1CCC[C@H](C(=O)*)C1; dDap(Me2) = CN(C)C[C@@H](N)C(=O)O; Hyp = O=C(O)[C@@H]1C[C@@H](O)CN1; NHcycloheptyl = C1CCCC(N*)CC1; NMeL = CN[C@@H](CC(C)C)C(=O)O; Octanoyl = CCCCCCCC(=O)*; Occ = octanoic acid

What was measured:
NPR-B = molecular target: T1, NPR-B (Homo sapiens, UniProt P20594); assay: NPR-B induced production of cyclic GMP in human glaucoma trabecular meshwork cells (GTM-3); format: cell-based; settings: group by EC50 and Emax (CNP = 100%); Table 4; read-out: Activity (group), NPR-B activation assayed with GTM-3 cells
T1 construct: a functional assay using endogenously NPR-B expressing GTM-3 cells; endogenous in cells; host or cells: GTM-3 (human glaucoma trabecular meshwork cells)
T1 sequence (P20594 23-1047): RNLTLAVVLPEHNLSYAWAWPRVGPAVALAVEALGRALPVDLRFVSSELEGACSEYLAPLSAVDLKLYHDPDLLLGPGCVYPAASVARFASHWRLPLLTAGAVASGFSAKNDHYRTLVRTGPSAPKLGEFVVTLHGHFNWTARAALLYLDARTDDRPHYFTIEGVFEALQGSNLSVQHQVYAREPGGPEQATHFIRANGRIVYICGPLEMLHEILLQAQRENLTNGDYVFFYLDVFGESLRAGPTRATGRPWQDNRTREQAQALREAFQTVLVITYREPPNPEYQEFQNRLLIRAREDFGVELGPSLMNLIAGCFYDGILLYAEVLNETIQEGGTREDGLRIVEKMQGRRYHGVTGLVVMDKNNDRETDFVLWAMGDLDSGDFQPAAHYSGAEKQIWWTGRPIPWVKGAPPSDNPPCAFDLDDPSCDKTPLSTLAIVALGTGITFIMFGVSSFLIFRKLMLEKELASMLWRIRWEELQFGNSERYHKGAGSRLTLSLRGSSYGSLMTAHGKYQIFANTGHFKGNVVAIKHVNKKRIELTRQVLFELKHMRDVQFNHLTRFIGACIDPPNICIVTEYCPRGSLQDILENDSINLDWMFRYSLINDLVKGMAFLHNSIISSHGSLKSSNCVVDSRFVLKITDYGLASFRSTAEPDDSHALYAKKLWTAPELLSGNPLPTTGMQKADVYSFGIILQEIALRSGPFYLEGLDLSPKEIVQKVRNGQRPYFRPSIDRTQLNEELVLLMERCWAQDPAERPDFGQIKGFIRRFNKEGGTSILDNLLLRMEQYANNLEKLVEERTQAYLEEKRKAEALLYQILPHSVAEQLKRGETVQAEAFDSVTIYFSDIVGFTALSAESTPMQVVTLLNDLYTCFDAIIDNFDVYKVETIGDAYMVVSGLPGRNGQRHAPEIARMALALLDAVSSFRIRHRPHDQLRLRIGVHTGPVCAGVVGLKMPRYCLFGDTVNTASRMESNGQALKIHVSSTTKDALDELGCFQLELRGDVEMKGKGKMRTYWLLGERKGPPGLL

rabbit eyes = assay: Efficacy in the rabbit: intraocular pressure (IOP) after a single topical ocular drop; format: in vivo; settings: dose 300 ug topical ocular, single 30 μL drop, up to 4 hr post dose, 1% as suspension (+) or solution (++) per mark on label
Description: A single 30 μL drop of a test item formulation was administered to rabbit eyes (n=8 to 10).
Intraocular pressure (IOP) was assessed in each eye at 0 hr, just prior to dosing, and again hourly for up to 4 hr post dose. The efficacy of a given formulation was determined based on the difference between the pretreatment TOP readings at 0 hr and the post treatment readings. A maximum percent reduction in IOP greater than 15% was noted by the “+” symbol. A maximum IOP reduction of less than 15% was assigned the “−” symbol.

EC50 (NPR-B) [nM]	Compound	RIOP, maximum percent reduction in IOP (rabbit eyes)
< 1000	CCCCCCCC(=O)N1CCC[C@H](C(=O)N[C@@H](Cc2ccccc2)C(=O)N[C@H](CC(C)C)C(=O)N[C@@H](CC(C)C)C(=O)N2C[C@H](O)C[C@H]2C(=O)N(C)[C@@H](CC(C)C)C(=O)N[C@@H](CC(=O)O)C(=O)N[C@@H](CCCNC(=N)N)C(=O)N[C@H](C(N)=O)[C@@H](C)CC)C1 [JAL-1041, Occ-Sni-Phe-leu-Leu-Hyp-Nml-Asp-Arg-Ile-NH2] (HELM PEPTIDE1{[CCCCCCCC(=O)[*:2]].[O=C([C@H]1CCCN([*:1])C1)[*:2]].F.[dL].L.[Hyp].[meL].D.R.I.[am]}$$$$V2.0)	+ (+ IOP reduction >15%)
< 1000	CCCCCCCC(=O)N[C@H](C)C(=O)N[C@@H](Cc1ccccc1)C(=O)N[C@H](CC(C)C)C(=O)N[C@@H](CC(C)C)C(=O)N1C[C@H](O)C[C@H]1C(=O)N(C)[C@@H](CC(C)C)C(=O)N[C@@H](CC(=O)O)C(=O)N[C@@H](CCCNC(=N)N)C(=O)N[C@H](C(N)=O)[C@@H](C)CC [JAL-1042, Occ-ala-Phe-leu-Leu-Hyp-Nml-Asp-Arg-Ile-NH2] (HELM PEPTIDE1{[CCCCCCCC(=O)[*:2]].[dA].F.[dL].L.[Hyp].[meL].D.R.I.[am]}$$$$V2.0)	− (− IOP reduction <15%)
< 1000	CCCCCCCC(=O)N[C@H](C)C(=O)N[C@@H](Cc1ccccc1)C(=O)N[C@H](CCCNC(=N)N)C(=O)N[C@@H](CC(C)C)C(=O)N1C[C@H](O)C[C@H]1C(=O)N[C@@H](CC(C)C)C(=O)N[C@@H](CC(=O)O)C(=O)N[C@@H](CCCNC(=N)N)C(=O)N[C@H](C(N)=O)[C@@H](C)CC [JAL-1047, Occ-ala-Phe-arg-Leu-Hyp-Leu-Asp-Arg-Ile-NH2] (HELM PEPTIDE1{[CCCCCCCC(=O)[*:2]].[dA].F.[dR].L.[Hyp].L.D.R.I.[am]}$$$$V2.0)	+ (+ IOP reduction >15%)
< 1000	CCCCCCCC(=O)N[C@H](C)C(=O)N[C@@H](Cc1ccccc1)C(=O)N[C@H](CCCCN)C(=O)N[C@@H](CC(C)C)C(=O)N1C[C@H](O)C[C@H]1C(=O)N(C)[C@@H](CC(C)C)C(=O)N[C@@H](CC(=O)O)C(=O)N[C@@H](CCCNC(=N)N)C(=O)N[C@H](C(N)=O)[C@@H](C)CC [JAL-1060, Occ-ala-Phe-lys-Leu-Hyp-Nml-Asp-Arg-Ile-NH2] (HELM PEPTIDE1{[CCCCCCCC(=O)[*:2]].[dA].F.[dK].L.[Hyp].[meL].D.R.I.[am]}$$$$V2.0)	+ (+ IOP reduction >15%)
< 1000	CCCCCCCC(=O)N[C@H](C)C(=O)N(C)[C@@H](Cc1ccccc1)C(=O)N[C@H](CCCNC(=N)N)C(=O)N[C@@H](CC(C)C)C(=O)N1C[C@H](O)C[C@H]1C(=O)N(C)[C@@H](CC(C)C)C(=O)N[C@@H](CC(=O)O)C(=O)N[C@@H](CCCNC(=N)N)C(=O)N[C@H](C(N)=O)[C@@H](C)CC [JAL-1085, Occ-ala-Nmf-arg-Leu-Hyp-Nml-Asp-Arg-Ile-NH2] (HELM PEPTIDE1{[CCCCCCCC(=O)[*:2]].[dA].[meF].[dR].L.[Hyp].[meL].D.R.I.[am]}$$$$V2.0)	+ (+ IOP reduction >15%)
< 1000	CCCCCCCC(=O)N[C@H](C)C(=O)N[C@@H](Cc1ccccc1)C(=O)N[C@H](CCCNC(=N)N)C(=O)N[C@@H](CC(C)C)C(=O)N1C[C@H](O)C[C@H]1C(=O)N(C)[C@@H](CC(C)C)C(=O)N[C@@H](CC(=O)O)C(=O)N[C@@H](CCCNC(=N)N)C(=O)N[C@H](C(N)=O)[C@@H](C)CC [JAL-1086, Occ-ala-Phe-arg-Leu-Hyp-Nml-Asp-Arg-Ile-NH2] (HELM PEPTIDE1{[CCCCCCCC(=O)[*:2]].[dA].F.[dR].L.[Hyp].[meL].D.R.I.[am]}$$$$V2.0)	+ (+ IOP reduction >15%)
–	CCCCCCCCN1CCC[C@H](C(=O)N[C@@H](Cc2ccccc2)C(=O)N[C@H](CN(C)C)C(=O)N[C@@H](CC(C)C)C(=O)N2C[C@H](N)C[C@H]2C(=O)N(C)[C@@H](CC(C)C)C(=O)N[C@@H](CC(=O)O)C(=O)N[C@@H](CCCNC(=N)N)C(=O)N[C@H](C(N)=O)[C@@H](C)CC)C1 [JAL-1369, Oct-Sni-Phe-dap(Me2)-Leu-Tap-Nml-Asp-Arg-Ile-NH2] (X1-F[dDap(Me2)]L[Pro(4R-NH2)][NMeL]DRI-NH2)	+ (+ IOP reduction >15%)
–	CCCCCCCCN1CCC[C@H](C(=O)N[C@@H](Cc2ccccc2)C(=O)N[C@H](CN(C)C)C(=O)N[C@@H](CC(C)C)C(=O)N2C[C@H](O)C[C@H]2C(=O)N(C)[C@@H](CC(C)C)C(=O)N[C@@H](CC(=O)O)C(=O)N[C@@H](CCCNC(=N)N)C(=O)N[C@H](C(N)=O)[C@@H](C)CC)C1 [JAL-1429, Oct-Sni-Phe-dap(Me2)-Leu-Hyp-Nml-Asp-Arg-Ile-NH2] (HELM PEPTIDE1{[CCCCCCCCN1CCC[C@H](C(=O)[*:2])C1].F.[CN(C)C[C@@H](N[*:1])C(=O)[*:2]].L.[Hyp].[meL].D.R.I.[am]}$$$$V2.0)	+ (+ IOP reduction >15%)
< 1000	CCCCCCCC(=O)N1CCC[C@H](C(=O)N[C@@H](Cc2ccccc2)C(=O)NC(CC2CCNCC2)C(=O)N[C@@H](CC(C)C)C(=O)N2C[C@H](O)C[C@H]2C(=O)N(C)[C@@H](CC(C)C)C(=O)N[C@@H](CC(=O)O)C(=O)N[C@@H](CCCNC(=N)N)C(=O)N[C@H](C(N)=O)[C@@H](C)CC)C1 (stereo partly drawn) [JAL-1890, Occ-Sni-Phe-Egg-Leu-Hyp-Nml-Asp-Arg-Ile-NH2] (Octanoyl-[X2]F[X19]L[Hyp][NMeL]DRI-NH2)	–
< 1000	CCCCCCCC(=O)N1CCC[C@H](C(=O)N[C@@H](Cc2ccccc2)C(=O)N[C@H](CCCN(C)C)C(=O)N[C@@H](CC(C)C)C(=O)N2C[C@H](O)C[C@H]2C(=O)N(C)[C@@H](CC(C)C)C(=O)N[C@H](C(=O)N[C@@H](CCCNC(=N)N)C(=O)NC2CCCCCC2)[C@@H](C)O)C1 [JAL-1895, Occ-Sni-Phe-orn(Me2)-Leu-Hyp-Nml-Thr-Arg-Che] (Octanoyl-[X2]F[dOrn(Me2)]L[Hyp][NMeL]TR-NHcycloheptyl)	–
< 1000	CCCCCC[C@H](NC(=O)[C@@H]1CCCN1C(=O)[C@@H](N)CCCCN)C(=O)N1CCC[C@H](C(=O)N[C@@H](Cc2ccccc2)C(=O)N[C@H](CC(C)C)C(=O)N[C@@H](CC(C)C)C(=O)N2C[C@H](O)C[C@H]2C(=O)N(C)[C@@H](CC(C)C)C(=O)N[C@@H](CC(=O)O)C(=O)N[C@@H](CCCNC(=N)N)C(=O)N[C@H](C(N)=O)[C@@H](C)CC)C1 [JAL-1900, H-Lys-Pro-Hgl-Sni-Phe-leu-Leu-Hyp-Nml-Asp-Arg-Ile-NH2] (HELM PEPTIDE1{K.P.[CCCCCC[C@H](N[*:1])C(=O)[*:2]].[O=C([C@H]1CCCN([*:1])C1)[*:2]].F.[dL].L.[Hyp].[meL].D.R.I.[am]}$$$$V2.0)	–
< 1000	CCCCCCCC(=O)N1CCC[C@H](C(=O)N[C@@H](Cc2ccccc2)C(=O)N[C@H](CC(C)C)C(=O)N[C@@H](CC(C)C)C(=O)N2C[C@H](O)C[C@H]2C(=O)N(C)[C@@H](CC(C)C)C(=O)N[C@H](C(=O)N[C@@H](CCCNC(=N)N)C(=O)N[C@H](C(N)=O)[C@@H](C)CC)[C@@H](C)O)C1 [JAL-1932, Occ-Sni-Phe-leu-Leu-Hyp-Nml-Thr-Arg-Ile-NH2] (HELM PEPTIDE1{[CCCCCCCC(=O)[*:2]].[O=C([C@H]1CCCN([*:1])C1)[*:2]].F.[dL].L.[Hyp].[meL].T.R.I.[am]}$$$$V2.0)	–
< 1000	CCCCCCCC(=O)N1CCC[C@H](C(=O)N[C@@H](Cc2ccccc2)C(=O)N[C@H](CCCN(C)C)C(=O)N[C@@H](CC(C)C)C(=O)N2C[C@H](N)C[C@H]2C(=O)N(C)[C@@H](CC(C)C)C(=O)N[C@@H](CC(=O)O)C(=O)N[C@@H](CCCNC(=N)N)C(=O)N[C@H](C(N)=O)[C@@H](C)CC)C1 [JAL-1936, Occ-Sni-Phe-orn(Me2)-Leu-Tap-Nml-Asp-Arg-Ile-NH2] (Octanoyl-[X2]F[dOrn(Me2)]L[Pro(4R-NH2)][NMeL]DRI-NH2)	–
–	Occ-Sni-Phe-dap(Me2)-Leu-Hyp-Nml-Val-Arg-Ile-NH2 ([Occ][Sni]FXL[Hyp][NMeL]VRI-NH2; not fully specified (residue 4); printed as Occ-Sni-Phe-dap(Me2)-Leu-Hyp-Nml-Val-Arg-Ile-NH2) [JAL-1400]	+ (+ IOP reduction >15%)
